These are literature values, as cited in patent publication US20090233811A1, “Manufacture of Array Chips” (Randox Laboratories Ltd., priority 2005, published 2009).

For the data set the following is noted: data from Sigma-Aldrich Handbook of Stains, Dyes and Indicators.
Take `O=S(=O)([O-])c1cc(S(=O)(=O)[O-])c2c(N=Nc3ccc(N=Nc4ccccc4)cc3)c(O)ccc2c1.[Na+].[Na+]` [Brilliant Crocein MOO]: the Solubility in water is 50 mg/mL. Take `O=C([O-])C1=NN(c2ccc(S(=O)(=O)[O-])cc2)C(=O)C1N=Nc1ccc(S(=O)(=O)[O-])cc1.[Na+].[Na+].[Na+]` (stereo not drawn) [Tartrazine]: the Solubility in water was 300 mg/mL.

With `O=S(=O)([O-])c1cc(/N=N/c2ccc(O)cc2)ccc1C=Cc1ccc(/N=N/c2ccc(O)cc2)cc1S(=O)(=O)[O-].[Na+].[Na+]` [Brilliant Yellow], the Solubility in water is 1 mg/mL. `O=S(=O)([O-])c1cc(O)c2c(O)c(N=Nc3ccccc3)c(S(=O)(=O)[O-])cc2c1.[Na+].[Na+]` [Chromotrope 2R]: the Solubility in water is 200 mg/mL. In the case of `O=S(=O)([O-])c1ccc2c(/N=N/c3ccccc3)c(O)ccc2c1.[Na+]` [Crocein Orange], the Solubility in water is 40 mg/mL. For the compound `CC(=O)Nc1cc(S(=O)(=O)[O-])cc2cc(S(=O)(=O)[O-])c(/N=N/c3ccccc3)c(O)c12.[Na+].[Na+]` [Acid Red 1], the Solubility in water is 60 mg/mL.
